# Test results: US20030077317A1, “Methods and compositions for enhancing the bioadhesive properties of polymers using organic excipients” (Brown University Research Foundation, priority 1996, published 2003)
# How the values were obtained:
# everted intestine = experiment: Distribution of acetaminophen in tissue compartments after incubation of everted intestine in vitro; assay type: in vitro ADME, rat
# Method: An in vitro assay for quantifying bioadhesion of microspheres to intestinal tissue was used to test the hot melt microspheres made as described in Example 2 (Jacob et al., Proceed,. Intern. Symp. Control. Rel. Bioact. Mater. 22:312-313 (1995). Everted sac experiments were performed using the microsphere formulations listed above. 6 cm segments of rat jejunum flushed with phosphate buffered saline (PBS), everted and fashioned into sacs filled with PBS. Sacs were incubated with 60 mg of microspheres in 5 ml of PBS at 37° C. with end-over-end agitation. After 30 min, the sacs were removed and the unbound microspheres were collected, washed with distilled water, frozen and lyophilized for 24 hrs. The weight of unbound beads was used to determine the amount of beads bound to the intestine:
# The FAPP:SAPP 92:8 18% acetaminophen microspheres were made using the hot melt method described in Example 2, and were used in everted sac experiments and the release of drug was determined to yield information on bioavailability. The release was determined by homogenizing intestinal tissue and mucosal and serosal fluids. The homogenates were centrifuged and the supernatant fluids were assayed for acetaminophen.
# rats = experiment: Oral (stomach tube) insulin delivery in rat model, glucose tolerance after subcutaneous glucose load; assay type: in vivo; settings: fed by stomach tube, by 3 hours
# Method: The delivery of insulin after adminstration of the nanoparticles, loaded with 10% (w/w) micronized FeO, was studied in a rat model. Five 300 g fasted rats were anaesthetized with Metofane and fed the following formulations by stomach tube: Rats 1 and 2: 0.5 mL saline Rat 3: 24 I.U. insulin/0.5 mL saline (amorphous suspension) Rats 4 and 5: 50 mg FAPP/PLGA nanospheres containing 20 I.U. insulin and 10% (w/w)FeO Blood samples from the tail vein were taken as an initial baseline and rats were subsequently tested for glucose tolerance following injection of a subcutaneous glucose load, consisting of 5 mL of 5% sterile glucose solution. Tutwiler et al., Diabetes, 27:856-867 (1978). At 1, 3, 4 and 5 hours postfeeding, blood samples were again taken and plasma glucose levels were measured spectrophotometrically at 505 nm using the Trinder glucose assay.
acetaminophen in gut wall (everted intestine; everted intestine in vitro) [mg/dL],acetaminophen in mucosal fluid (everted intestine; everted intestine in vitro) [mg/dL],acetaminophen in serosal fluid (everted intestine; everted intestine in vitro) [mg/dL],mucosal/serosal ratio (everted intestine; everted intestine in vitro),"acetaminophen distribution, gut wall (everted intestine; everted sac)","acetaminophen distribution, mucosal fluid (everted intestine; everted sac)","acetaminophen distribution, serosal fluid (everted intestine; everted sac)",Compound,increase in blood glucose level over fasting baseline (rats) [%]
19 ± 7,39 ± 1,13 ± 1,3.0,7.9 ± 0.9 % of total dose,86.5 ± 1.5 % of total dose,5.7 ± 0.9 % of total dose,"CC(=O)Nc1ccc(O)cc1 [control, acetaminophen]",
,,,,,,,insulin [oral insulin solution],62
